{
  "source": "patent US20250263370A1",
  "about": "(Tay Therapeutics Limited, priority 2022, published 2025)",
  "tested_on": "collagen-induced arthritis",
  "assay": "Collagen-induced arthritis (CIA) model in rats: body weight, paw volume, clinical scores, clinical observations",
  "settings": "CIA rats",
  "key": {"[1]": {"settings": "10 mg/kg twice daily P.O. (group 6), day 21"}, "[2]": {"settings": "30 mg/kg twice daily P.O. (group 7)"}, "[3]": {"settings": "30 mg/kg twice daily P.O. (group 7), day 15"}, "[4]": {"settings": "30 mg/kg twice daily P.O. (group 7), day 19"}, "[5]": {"settings": "30 mg/kg twice daily P.O. (group 7), day 21"}},
  "note": "Where “and” joins values, the source holds several entries; their conditions need not be identical. Equal values may be shown once. Entries after “also recorded” stand apart in the source; their conditions may differ.",
  "protocol": "Prior to be randomly placed in treatment groups, animals were weighed, and paw volume was measured. Once randomly assigned to treatment groups, on Day 0, animals in groups 2-9 were immunized by subcutaneous injection at the base of the tail.\nThe immunization comprised 100 μL of the CFA+Collagen emulsion (prepared according to the method in Experimental Method A). Animals in group one received no immunization. Seven days after the first injection, animals in groups 2-9 received a booster immunization comprising 200 μL of the IFA+Collagen emulsion (prepared according to the method in Experimental Method A).\nStarting on Day 0, animals in group 1 and 2 were administered daily doses of the vehicle per os (P.O.) for 21 days. […] The twice daily doses for animals in groups 4-9 were 8 hours apart (e.g., the first dose at 8:00 AM and the second dose at 4:00 PM).\nBody weight of all animals was recorded daily for the 21-day period. Blind clinical scores on all four limbs were conducted for all animals in the study. Animals were assessed prior to receiving their first dose of the compound or control, and scores for each limb were combined to a total daily score for each animal. Clinical score assessments were performed on Day 0, 6, 12, 13, 14, 15, 18, 19, and 21 (for a total of 9 daily scores).\nPaw volume was recorded for each animal on Day 0, 6, 12, 13, 14, 15, 18, 19, and 21 (for a total of 9 measurements). To measure paw volume, animals were gently held with one hand while the hind paw was placed into a plethysmometer with the other hand. Lipid displacement by the paw was recorded and used to represent paw volume.\nAll data measured and recorded was analyzed using SPSS 16.0 software. Groups were compared using one-way ANOVA and significance was set at p<0.05.",
  "data": [
    {"compound": "CNC(=O)c1[nH]c(C(=O)NC2CCC2)cc1O[C@@H](C)c1ccccc1", "note": "(stereo in doubt) [Example 101, N^5-cyclobutyl-N^2-methyl-3-(1-phenylethoxy)-1H-pyrrole-2,5-dicarboxamide]", "values": [
      {"measurement": "animals with a score of 2 on one hind limb and no score on the other hind limb", "setting": "[1]", "result": "1/8"},
      {"measurement": "animals with scores of 1 or 2 on both hind limbs", "setting": "[1]", "result": "2/8"},
      {"measurement": "animals with scores of 3 on each hind limb", "setting": "[1]", "result": "3/8"},
      {"measurement": "animals with scores of 4 on one or more hind limbs", "setting": "10 mg/kg twice daily P.O. (group 6), days 19 and 21", "result": "2/8"},
      {"measurement": "paw volume increase at plateau relative to day 0", "setting": "10 mg/kg twice daily P.O. (group 6), plateau at day 18", "result": "approximately 50%"},
      {"measurement": "Average animal paw volume percent change", "setting": "10 mg/kg, Day 0, left hind paw (L)", "result": 0.00, "unit": "%"},
      {"measurement": "Animal paw volume Day 0 L", "setting": "10 mg/kg, Day 0, left paw, individual animals", "result": "1.39 mL and 1.26 mL (2×) and 1.29 mL (2×) and 1.31 mL and 1.30 mL and 1.37 mL"},
      {"measurement": "Average animal paw volume percent change", "setting": "10 mg/kg, Day 0, right hind paw (R)", "result": 0.00, "unit": "%"},
      {"measurement": "Animal paw volume Day 0 R", "setting": "10 mg/kg, Day 0, right paw, individual animals", "result": "1.41 mL and 1.26 mL (2×) and 1.30 mL (3×) and 1.31 mL and 1.37 mL"},
      {"measurement": "Average animal paw volume percent change", "setting": "10 mg/kg, Day 6, left hind paw (L)", "result": 1.14, "unit": "%"},
      {"measurement": "Animal paw volume Day 6 L", "setting": "10 mg/kg, Day 6, left paw, individual animals", "result": "1.41 mL and 1.23 mL and 1.31 mL and 1.33 mL and 1.34 mL and 1.35 mL and 1.37 mL and 1.26 mL"},
      {"measurement": "Average animal paw volume percent change", "setting": "10 mg/kg, Day 6, right hind paw (R)", "result": 0.87, "unit": "%"},
      {"measurement": "Animal paw volume Day 6 R", "setting": "10 mg/kg, Day 6, right paw, individual animals", "result": "1.41 mL and 1.24 mL and 1.32 mL and 1.33 mL and 1.34 mL (2×) and 1.36 mL and 1.26 mL"},
      {"measurement": "Average animal paw volume percent change", "setting": "10 mg/kg, Day 12, left hind paw (L)", "result": 7.61, "unit": "%"},
      {"measurement": "Animal paw volume Day 12 L", "setting": "10 mg/kg, Day 12, left paw, individual animals", "result": "1.52 mL and 1.26 mL and 1.43 mL and 1.63 mL and 1.34 mL and 1.44 mL and 1.39 mL and 1.27 mL"},
      {"measurement": "Average animal paw volume percent change", "setting": "10 mg/kg, Day 12, right hind paw (R)", "result": 7.98, "unit": "%"},
      {"measurement": "Animal paw volume Day 12 R", "setting": "10 mg/kg, Day 12, right paw, individual animals", "result": "1.44 mL and 1.27 mL and 1.88 mL and 1.33 mL and 1.35 mL and 1.38 mL and 1.39 mL and 1.29 mL"},
      {"measurement": "Average animal paw volume percent change", "setting": "10 mg/kg, Day 13, left hind paw (L)", "result": 16.61, "unit": "%"},
      {"measurement": "Animal paw volume Day 13 L", "setting": "10 mg/kg, Day 13, left paw, individual animals", "result": "1.71 mL and 1.32 mL and 1.81 mL and 1.83 mL and 1.35 mL and 1.45 mL and 1.44 mL and 1.31 mL"},
      {"measurement": "Average animal paw volume percent change", "setting": "10 mg/kg, Day 13, right hind paw (R)", "result": 10.89, "unit": "%"},
      {"measurement": "Animal paw volume Day 13 R", "setting": "10 mg/kg, Day 13, right paw, individual animals", "result": "1.54 mL and 1.32 mL and 1.90 mL and 1.37 mL (2×) and 1.41 mL and 1.44 mL and 1.29 mL"},
      {"measurement": "Average animal paw volume percent change", "setting": "10 mg/kg, Day 14, left hind paw (L)", "result": 30.15, "unit": "%"},
      {"measurement": "Animal paw volume Day 14 L", "setting": "10 mg/kg, Day 14, left paw, individual animals", "result": "2.00 mL and 1.50 mL and 2.07 mL and 2.45 mL and 1.39 mL and 1.45 mL and 1.44 mL and 1.31 mL"},
      {"measurement": "Average animal paw volume percent change", "setting": "10 mg/kg, Day 14, right hind paw (R)", "result": 21.45, "unit": "%"},
      {"measurement": "Animal paw volume Day 14 R", "setting": "10 mg/kg, Day 14, right paw, individual animals", "result": "1.62 mL and 1.68 mL and 2.23 mL and 1.67 mL and 1.37 mL and 1.43 mL and 1.46 mL and 1.28 mL"},
      {"measurement": "Average animal paw volume percent change", "setting": "10 mg/kg, Day 15, left hind paw (L)", "result": 40.41, "unit": "%"},
      {"measurement": "Animal paw volume Day 15 L", "setting": "10 mg/kg, Day 15, left paw, individual animals", "result": "2.13 mL and 1.73 mL and 2.33 mL and 2.49 mL and 1.41 mL and 1.60 mL and 1.49 mL and 1.51 mL"},
      {"measurement": "Average animal paw volume percent change", "setting": "10 mg/kg, Day 15, right hind paw (R)", "result": 34.05, "unit": "%"},
      {"measurement": "Animal paw volume Day 15 R", "setting": "10 mg/kg, Day 15, right paw, individual animals", "result": "1.93 mL and 1.83 mL and 2.53 mL and 1.91 mL and 1.38 mL and 1.45 mL and 1.51 mL and 1.52 mL"},
      {"measurement": "Average animal paw volume percent change", "setting": "10 mg/kg, Day 18, left hind paw (L)", "result": 59.21, "unit": "%"},
      {"measurement": "Animal paw volume Day 18 L", "setting": "10 mg/kg, Day 18, left paw, individual animals", "result": "2.40 mL and 2.04 mL and 2.54 mL and 2.70 mL and 1.51 mL (2×) and 2.30 mL and 1.64 mL"},
      {"measurement": "Average animal paw volume percent change", "setting": "10 mg/kg, Day 18, right hind paw (R)", "result": 54.15, "unit": "%"},
      {"measurement": "Animal paw volume Day 18 R", "setting": "10 mg/kg, Day 18, right paw, individual animals", "result": "2.23 mL and 2.08 mL and 2.52 mL and 2.74 mL and 1.59 mL and 1.91 mL and 1.58 mL and 1.51 mL"},
      {"measurement": "Average animal paw volume percent change", "setting": "10 mg/kg, Day 19, left hind paw (L)", "result": 58.75, "unit": "%"},
      {"measurement": "Animal paw volume Day 19 L", "setting": "10 mg/kg, Day 19, left paw, individual animals", "result": "2.38 mL and 2.04 mL and 2.49 mL and 2.64 mL and 1.48 mL and 2.32 mL and 1.65 mL and 1.60 mL"},
      {"measurement": "Average animal paw volume percent change", "setting": "10 mg/kg, Day 19, right hind paw (R)", "result": 54.16, "unit": "%"},
      {"measurement": "Animal paw volume Day 19 R", "setting": "10 mg/kg, Day 19, right paw, individual animals", "result": "2.36 mL and 2.05 mL and 2.47 mL and 2.71 mL and 1.58 mL and 1.87 mL and 1.57 mL and 1.56 mL"},
      {"measurement": "Average animal paw volume percent change", "setting": "10 mg/kg, Day 21, left hind paw (L)", "result": 60.25, "unit": "%"},
      {"measurement": "Animal paw volume Day 21 L", "setting": "10 mg/kg, Day 21, left paw, individual animals", "result": "2.38 mL and 2.03 mL and 2.48 mL and 2.64 mL and 1.48 mL and 2.33 mL and 1.83 mL and 1.60 mL"},
      {"measurement": "Average animal paw volume percent change", "setting": "10 mg/kg, Day 21, right hind paw (R)", "result": 59.20, "unit": "%"},
      {"measurement": "Animal paw volume Day 21 R", "setting": "10 mg/kg, Day 21, right paw, individual animals", "result": "2.35 mL and 2.04 mL and 2.46 mL and 2.68 mL and 1.58 mL and 2.15 mL and 1.82 mL and 1.62 mL"},
      {"measurement": "animals that never showed signs of disease", "setting": "[2]", "result": "one animal"},
      {"measurement": "average clinical score relative to CIA + vehicle (group 2)", "setting": "[2]", "result": "significantly decreased (p<0.01) relative to animals in group 2 on days 18, 19 and 21"},
      {"measurement": "average overall clinical score at plateau", "setting": "[2]", "result": 4},
      {"measurement": "day on which paw volume noticeably increased", "setting": "[2]", "result": "~19", "unit": "days"},
      {"measurement": "effect on hind paw volume", "setting": "[2]", "result": "most effective dose at preventing an increase in paw volume; also recorded: Paw volume increases were delayed; also recorded: proved most effective"},
      {"measurement": "paw volume increase at plateau relative to day 0", "setting": "[2]", "result": "approximately 35%"},
      {"measurement": "paw volume relative to CIA + vehicle (group 2)", "setting": "[2]", "result": "significantly reduced relative to group 2 at day 15 (left paw, p<0.05) and days 18, 19, 21 (both paws, p<0.01)"},
      {"measurement": "animals exhibiting signs of disease", "setting": "30 mg/kg twice daily P.O. (group 7), day 12", "result": "One animal"},
      {"measurement": "animals exhibiting disease", "setting": "[3]", "result": "4/8"},
      {"measurement": "animals with a score of 2 on one hind limb", "setting": "[3]", "result": "2/8"},
      {"measurement": "animals exhibiting disease", "setting": "30 mg/kg twice daily P.O. (group 7), day 16", "result": "5/8"},
      {"measurement": "animals with scores of 2 or 3 on both hind limbs", "setting": "30 mg/kg twice daily P.O. (group 7), day 18", "result": "3/8"},
      {"measurement": "animals exhibiting disease", "setting": "[4]", "result": "7/8"},
      {"measurement": "animals with a score of 2 or 3 on both hind limbs", "setting": "[4]", "result": "4/8"},
      {"measurement": "animals with a clinical score of 3 on both hind limbs", "setting": "[5]", "result": "4/8"},
      {"measurement": "animals with a score of 1 on one or both hind limbs", "setting": "[5]", "result": "3/8"},
      {"measurement": "animals with no clinical score", "setting": "[5]", "result": "1/8"},
      {"measurement": "Average animal paw volume percent change", "setting": "30 mg/kg, Day 0, left hind paw (L)", "result": 0.00, "unit": "%"}
    ]}
  ]
}
